Assay results reported in ChEMBL document CHEMBL3885861, “Open TG-GATES”.

Species on record: Rattus norvegicus
Experiment: Open TG-GATES - Regimen: Daily Repeat
Assay type: toxicity, organism-based, Sprague-Dawley
Design: regimen Daily Repeat, gender Male, age 6 weeks
Settings: in vivo, po, route gavage; for gamma-GTP / ALP / ALT / AST / CRE / Ca / Cl / DBIL / GLC / IP / K / LDH / Na / PL / RALB / TBIL / TC / TG / TP / BUN: tissue Plasma; for APTT / Bas / Eos / Fbg / Hb / Lym / MCH / MCHC / MCV / Mono / Plat / RBC / Ret / WBC / Ht: tissue Blood; for KIDNEY_L / KIDNEY_R / KIDNEY_TOTAL: tissue Kidney
[1] = 75 mg/kg, 72 h, dose level Middle, time 3 day
[2] = 75 mg/kg, […], dose level Middle, time 7 day
[3] = 75 mg/kg, […], dose level Middle, time 14 day
[4] = 75 mg/kg, […], dose level Middle, time 28 day
[5] = 250 mg/kg, 72 h, dose level High, time 3 day
[6] = 250 mg/kg, […], dose level High, time 7 day
[7] = 250 mg/kg, […], dose level High, time 14 day
[8] = 250 mg/kg, […], dose level High, time 28 day

O=C1CN(/N=C/c2ccc(-c3ccc([N+](=O)[O-])cc3)o2)C(O)=N1 [DANTROLENE]
gamma-GTP (25 mg/kg, […], dose level Low, time 28 day): 1.6 IU/L | TERMINAL_BW [1]: 213.7 g | APTT [1]: 19.1 s | Bas [1]: 0% | Eos [1]: 1% | Fbg [1]: 223.4 mg/dL | Hb [1]: 14.1 g/dL | Lym [1]: 81.8% | MCH [1]: 21.6 pg | MCHC [1]: 33.8% | MCV [1]: 63.8 fL | Mono [1]: 7% | Plat [1]: 126.6 x10_4/uL | RBC [1]: 656.2 x10_4/ul | Ret [1]: 2.9% | WBC [1]: 97.1 x10_2/uL | KIDNEY_L [1]: 1 g | KIDNEY_R [1]: 1 g | KIDNEY_TOTAL [1]: 2 g | ALP [1]: 615 IU/L | ALT [1]: 30.2 IU/L | AST [1]: 63.2 IU/L | CRE [1]: 0.6 mg/dL | Ca [1]: 10.8 mg/dL | Cl [1]: 105.2 meq/L | DBIL [1]: 0.01 mg/dL | GLC [1]: 188 mg/dL | IP [1]: 6 mg/dL | K [1]: 4.2 meq/L | LDH [1]: 107.2 IU/L | Na [1]: 140.6 meq/L | PL [1]: 142 mg/dL | RALB [1]: 3.9 g/dL | TBIL [1]: 0.3 mg/dL | TC [1]: 75.4 mg/dL | TG [1]: 52.4 mg/dL | TP [1]: 5.8 g/dL | gamma-GTP [1]: 1 IU/L | TERMINAL_BW [2]: 242.5 g | TERMINAL_BW [3]: 289.9 g | TERMINAL_BW [4]: 346.6 g | APTT [2]: 17.1 s | Bas [2]: 0% | Eos [2]: 1% | Fbg [2]: 207.4 mg/dL | Hb [2]: 14.3 g/dL | Lym [2]: 77.8% | MCH [2]: 21.1 pg | MCHC [2]: 33.5% | MCV [2]: 63 fL | Mono [2]: 8.4% | RBC [2]: 679 x10_4/ul | Ret [2]: 5.6% | WBC [2]: 121.9 x10_2/uL | APTT [3]: 16.7 s | Bas [3]: 0% | Eos [3]: 0.6% | Fbg [3]: 222.4 mg/dL | Hb [3]: 15.3 g/dL | Lym [3]: 83.6% | MCH [3]: 21 pg | MCHC [3]: 34% | MCV [3]: 61.8 fL | Mono [3]: 5.8% | Plat [3]: 114.6 x10_4/uL | RBC [3]: 727.2 x10_4/ul | Ret [3]: 4.7% | WBC [3]: 127.2 x10_2/uL | APTT [4]: 16.8 s | Bas [4]: 0% | Eos [4]: 1.2% | Fbg [4]: 231.8 mg/dL | Hb [4]: 15.7 g/dL | Ht [4]: 46.3% | Lym [4]: 79.4% | MCH [4]: 19.5 pg | MCHC [4]: 33.9% | MCV [4]: 57.5 fL | Mono [4]: 5.4% | Plat [4]: 118.7 x10_4/uL | RBC [4]: 806.6 x10_4/ul | Ret [4]: 4.4% | KIDNEY_L [2]: 1.1 g | KIDNEY_R [2]: 1.1 g | KIDNEY_TOTAL [2]: 2.1 g | KIDNEY_L [3]: 1.2 g | KIDNEY_R [3]: 1.2 g | KIDNEY_TOTAL [3]: 2.4 g | KIDNEY_L [4]: 1.4 g | KIDNEY_R [4]: 1.4 g | KIDNEY_TOTAL [4]: 2.8 g | ALP [2]: 857.6 IU/L | ALT [2]: 34 IU/L | AST [2]: 61.2 IU/L | BUN [2]: 18.2 mg/dL | CRE [2]: 0.5 mg/dL | Ca [2]: 10.8 mg/dL | Cl [2]: 108.6 meq/L | DBIL [2]: 0.014 mg/dL | GLC [2]: 185.6 mg/dL | IP [2]: 6.9 mg/dL | K [2]: 4.8 meq/L | LDH [2]: 107.4 IU/L | Na [2]: 139.6 meq/L | PL [2]: 139.4 mg/dL | RALB [2]: 3.8 g/dL | TBIL [2]: 0.4 mg/dL | TC [2]: 65.6 mg/dL | TG [2]: 74.4 mg/dL | TP [2]: 5.7 g/dL | gamma-GTP [2]: 1.4 IU/L | ALP [3]: 636.8 IU/L | ALT [3]: 30.6 IU/L | AST [3]: 57.4 IU/L | BUN [3]: 19.6 mg/dL | CRE [3]: 0.6 mg/dL | Ca [3]: 10.8 mg/dL | Cl [3]: 105.4 meq/L | DBIL [3]: 0.016 mg/dL | GLC [3]: 186.8 mg/dL | IP [3]: 6.5 mg/dL | K [3]: 3.9 meq/L | LDH [3]: 101.8 IU/L | Na [3]: 141 meq/L | PL [3]: 160.6 mg/dL | RALB [3]: 3.8 g/dL | TBIL [3]: 0.4 mg/dL | TC [3]: 66.4 mg/dL | TG [3]: 130.4 mg/dL | TP [3]: 5.9 g/dL | gamma-GTP [3]: 0.6 IU/L | ALP [4]: 509.8 IU/L | ALT [4]: 31.8 IU/L | AST [4]: 53 IU/L | BUN [4]: 18.8 mg/dL | CRE [4]: 0.5 mg/dL | Ca [4]: 10.7 mg/dL | Cl [4]: 106.4 meq/L | DBIL [4]: 0.05 mg/dL | GLC [4]: 179.8 mg/dL | IP [4]: 6.2 mg/dL | K [4]: 4.2 meq/L | LDH [4]: 122.4 IU/L | Na [4]: 140 meq/L | PL [4]: 169.6 mg/dL | RALB [4]: 4 g/dL | TBIL [4]: 0.2 mg/dL | TC [4]: 72.4 mg/dL | TG [4]: 139.8 mg/dL | TP [4]: 6.2 g/dL | gamma-GTP [4]: 1.2 IU/L | TERMINAL_BW [5]: 193.8 g | APTT [5]: 18.5 s | Bas [5]: 0% | Eos [5]: 1% | Fbg [5]: 226.8 mg/dL | Hb [5]: 14.7 g/dL | Lym [5]: 85% | MCH [5]: 21.1 pg | MCHC [5]: 33.3% | MCV [5]: 63.2 fL | Mono [5]: 6.6% | Plat [5]: 124.6 x10_4/uL | RBC [5]: 696 x10_4/ul | Ret [5]: 2.8% | WBC [5]: 69 x10_2/uL | KIDNEY_L [5]: 1 g | KIDNEY_R [5]: 1 g | KIDNEY_TOTAL [5]: 2 g | ALP [5]: 630.6 IU/L | ALT [5]: 29.6 IU/L | AST [5]: 52.4 IU/L | BUN [5]: 17.2 mg/dL | CRE [5]: 0.5 mg/dL | Ca [5]: 10.4 mg/dL | Cl [5]: 103.8 meq/L | DBIL [5]: 0.018 mg/dL | GLC [5]: 174 mg/dL | IP [5]: 8.2 mg/dL | K [5]: 4.4 meq/L | LDH [5]: 99.6 IU/L | Na [5]: 139.2 meq/L | PL [5]: 121.2 mg/dL | RALB [5]: 3.7 g/dL | TBIL [5]: 0.4 mg/dL | TC [5]: 62.8 mg/dL | TG [5]: 24 mg/dL | TP [5]: 5.5 g/dL | gamma-GTP [5]: 1 IU/L | TERMINAL_BW [6]: 231.2 g | TERMINAL_BW [7]: 269 g | TERMINAL_BW [8]: 326.2 g | APTT [6]: 18.1 s | Bas [6]: 0% | Eos [6]: 0.8% | Fbg [6]: 233 mg/dL | Hb [6]: 14.4 g/dL | Lym [6]: 81.4% | MCH [6]: 21.2 pg | MCHC [6]: 33.5% | MCV [6]: 63.3 fL | Mono [6]: 6% | Plat [6]: 108.9 x10_4/uL | RBC [6]: 680.2 x10_4/ul | Ret [6]: 5.8% | WBC [6]: 128.7 x10_2/uL | APTT [7]: 19.3 s | Bas [7]: 0% | Eos [7]: 0.6% | Fbg [7]: 233.6 mg/dL | Hb [7]: 15 g/dL | Lym [7]: 82.2% | MCH [7]: 20.1 pg | MCHC [7]: 33.6% | MCV [7]: 59.7 fL | Mono [7]: 6.4% | Plat [7]: 119.9 x10_4/uL | RBC [7]: 750.6 x10_4/ul | Ret [7]: 5.6% | WBC [7]: 115.6 x10_2/uL | APTT [8]: 18.4 s | Bas [8]: 0% | Eos [8]: 1% | Fbg [8]: 288.6 mg/dL | Hb [8]: 15.3 g/dL | Ht [8]: 45% | Lym [8]: 80.4% | MCH [8]: 19.3 pg | MCHC [8]: 33.9% | MCV [8]: 56.9 fL | Mono [8]: 6.4% | Plat [8]: 134.2 x10_4/uL | RBC [8]: 791.2 x10_4/ul | Ret [8]: 5.2% | WBC [8]: 109.3 x10_2/uL | KIDNEY_L [6]: 1.1 g | KIDNEY_R [6]: 1.1 g | KIDNEY_TOTAL [6]: 2.2 g | KIDNEY_L [7]: 1.2 g | KIDNEY_R [7]: 1.2 g | KIDNEY_TOTAL [7]: 2.4 g | KIDNEY_L [8]: 1.7 g | KIDNEY_R [8]: 1.7 g | KIDNEY_TOTAL [8]: 3.3 g | ALP [6]: 838.2 IU/L | ALT [6]: 31.4 IU/L | AST [6]: 51.6 IU/L | BUN [6]: 16 mg/dL | CRE [6]: 0.6 mg/dL | Ca [6]: 10.8 mg/dL | Cl [6]: 107.2 meq/L | DBIL [6]: 0.01 mg/dL | GLC [6]: 183.8 mg/dL | IP [6]: 7.4 mg/dL | K [6]: 4.7 meq/L | LDH [6]: 102.6 IU/L | Na [6]: 140.2 meq/L | PL [6]: 160.2 mg/dL | RALB [6]: 3.6 g/dL | TBIL [6]: 0.4 mg/dL | TC [6]: 75.2 mg/dL | TG [6]: 98.4 mg/dL | TP [6]: 5.6 g/dL | gamma-GTP [6]: 1.4 IU/L | ALP [7]: 701.4 IU/L | ALT [7]: 26.4 IU/L | AST [7]: 55.8 IU/L | BUN [7]: 17.6 mg/dL | CRE [7]: 0.5 mg/dL | Ca [7]: 10.8 mg/dL | Cl [7]: 104.4 meq/L | DBIL [7]: 0.042 mg/dL | GLC [7]: 172 mg/dL | IP [7]: 7.9 mg/dL | K [7]: 4.2 meq/L | LDH [7]: 92 IU/L | Na [7]: 141.4 meq/L | PL [7]: 152.6 mg/dL | RALB [7]: 3.9 g/dL | TBIL [7]: 0.4 mg/dL | TC [7]: 64.4 mg/dL | TG [7]: 88 mg/dL | TP [7]: 5.8 g/dL | gamma-GTP [7]: 1.2 IU/L | ALP [8]: 453.2 IU/L | ALT [8]: 24.6 IU/L | AST [8]: 35.8 IU/L | BUN [8]: 24.8 mg/dL | CRE [8]: 0.7 mg/dL | Ca [8]: 10.9 mg/dL | Cl [8]: 106.6 meq/L | DBIL [8]: 0.04 mg/dL | GLC [8]: 175.6 mg/dL | IP [8]: 7.3 mg/dL | K [8]: 4.3 meq/L | LDH [8]: 96.2 IU/L | Na [8]: 141.2 meq/L | PL [8]: 174.6 mg/dL | RALB [8]: 3.9 g/dL | TBIL [8]: 0.3 mg/dL | TC [8]: 70.6 mg/dL | TG [8]: 152.2 mg/dL | TP [8]: 6.1 g/dL | gamma-GTP [8]: 2.4 IU/L
